Data reported in patent US9944602B2, “Piperidinone herbicides” (E. I. DU PONT DE NEMOURS AND COMPANY, priority 2014, dated 2018).

Tests used:
Type in all cases: in vivo
[1] = system: wheat (Triticum aestivum); experiment: Test A postemergence wheat; settings: 0 to 100 scale, 0 is no effect, 100 is complete control
Source text: (§1) Seeds of plant species selected from barnyardgrass (Echinochloa crus-galli), kochia (Kochia scoparia), ragweed (common ragweed, Ambrosia elatior), ryegrass, Italian (Italian ryegrass, Lolium multiflorum), crabgrass, large (large crabgrass, Digitaria sanguinalis), foxtail, giant (giant foxtail, Setaria faberii), morningglory (Ipomoea spp.), pigweed (Amaranthus retroflexus), velvetleaf (Abutilon theophrasti), wheat (Triticum aestivum), and corn (Zea mays) were planted into a blend of loam soil and sand and treated preemergence with a directed soil spray using test chemicals formulated in a non-phytotoxic solvent mixture which included a surfactant.
(§2) At the same time, plants selected from these crop and weed species and also blackgrass (Alopecurus myosuroides), and galium (catchweed bedstraw, Galium aparine) were planted in pots containing the same blend of loam soil and sand and treated with postemergence applications of test chemicals formulated in the same manner. Plants ranged in height from 2 to 10 cm and were in the one- to two-leaf stage for the postemergence treatment. Treated plants and untreated controls were maintained in a greenhouse for approximately 10 d, after which time all treated plants were compared to untreated controls and visually evaluated for injury. Plant response ratings, summarized in Table A, are based on a 0 to 100 scale where 0 is no effect and 100 is complete control. A dash (-) response means no test result.

[2] = system: blackgrass (Alopecurus myosuroides); experiment: Test A postemergence blackgrass; settings: 0 to 100 scale, 0 is no effect, 100 is complete control
Source text: as §1, §2

[3] = system: barnyardgrass (Echinochloa crus-galli); experiment: Test A preemergence barnyardgrass; settings: 0 to 100 scale, 0 no effect, 100 complete control
Source text: as §1, §2

kochia (Kochia scoparia) [4] = experiment: Test A preemergence kochia; settings: 0 to 100 scale, 0 no effect, 100 complete control
Source text: as §1, §2

[5] = system: barnyardgrass (Echinochloa crus-galli); experiment: Test A postemergence barnyardgrass; settings: 0 to 100 scale, 0 is no effect, 100 is complete control
Source text: as §1, §2

[6] = system: pigweed (Amaranthus retroflexus); experiment: Test A preemergence pigweed; settings: 0 to 100 scale, 0 no effect, 100 complete control
Source text: as §1, §2

[7] = system: ducksalad (Heteranthera limosa); experiment: Test B flooded paddy test ducksalad; settings: Table B, Flood, 500 g ai/ha, scale 0 to 100
Method: (§3) Plant species in the flooded paddy test selected from rice (Oryza sativa), sedge, umbrella (small-flower umbrella sedge, Cyperus difformis), ducksalad (Heteranthera limosa), and barnyardgrass (Echinochloa crus-galli) were grown to the 2-leaf stage for testing. At the time of treatment, test pots were flooded to 3 cm above the soil surface, treated by application of test compounds directly to the paddy water, and then maintained at that water depth for the duration of the test. Treated plants and controls were maintained in a greenhouse for 13 to 15 d, after which time all species were compared to controls and visually evaluated. […] A dash (-) response means no test result.

kochia (Kochia scoparia) [8] = experiment: Test A postemergence kochia; settings: 0 to 100 scale, 0 is no effect, 100 is complete control
Source text: as §1, §2

[9] = system: pigweed (Amaranthus retroflexus); experiment: Test A postemergence pigweed; settings: 0 to 100 scale, 0 is no effect, 100 is complete control
Source text: as §1, §2

[10] = system: foxtail, giant (giant foxtail, Setaria faberii); experiment: Test A postemergence foxtail, giant; settings: 0 to 100 scale, 0 is no effect, 100 is complete control
Source text: as §1, §2

[11] = system: barnyardgrass (Echinochloa crus-galli); experiment: Test B flooded paddy test barnyardgrass; settings: Table B, Flood, 500 g ai/ha, scale 0 to 100
Method: as §3

[12] = system: ragweed (common ragweed, Ambrosia elatior); experiment: Test A postemergence ragweed; settings: 0 to 100 scale, 0 is no effect, 100 is complete control
Source text: as §1, §2

[13] = system: foxtail, giant (giant foxtail, Setaria faberii); experiment: Test A preemergence foxtail, giant; settings: 0 to 100 scale, 0 no effect, 100 complete control
Source text: as §1, §2

[14] = system: ragweed (common ragweed, Ambrosia elatior); experiment: Test A preemergence ragweed; settings: 0 to 100 scale, 0 no effect, 100 complete control
Source text: as §1, §2

[15] = system: sedge, umbrella (small-flower umbrella sedge, Cyperus difformis); experiment: Test B flooded paddy test sedge, umbrella; settings: Table B, Flood, 500 g ai/ha, scale 0 to 100
Method: as §3

[16] = system: ryegrass, Italian (Italian ryegrass, Lolium multiflorum); experiment: Test A preemergence ryegrass, Italian; settings: 0 to 100 scale, 0 no effect, 100 complete control
Source text: as §1, §2

rice (Oryza sativa) = experiment: Test B flooded paddy test rice; settings: Table B, Flood, 500 g ai/ha, scale 0 to 100
Method: as §3

[17] = system: galium (catchweed bedstraw, Galium aparine); experiment: Test A postemergence galium; settings: 0 to 100 scale, 0 is no effect, 100 is complete control
Source text: as §1, §2

[18] = system: ryegrass, Italian (Italian ryegrass, Lolium multiflorum); experiment: Test A postemergence ryegrass, Italian; settings: 0 to 100 scale, 0 is no effect, 100 is complete control
Source text: as §1, §2

corn (Zea mays) = experiment: Test A postemergence corn; settings: 0 to 100 scale, 0 is no effect, 100 is complete control
Source text: as §1, §2

| Compound | Plant response rating, Wheat ([1]; 125 g ai/ha) | Plant response rating, Wheat ([1]; 500 g ai/ha) | Plant response rating, Blackgrass ([2]; 125 g ai/ha) | Plant response rating, Blackgrass ([2]; 500 g ai/ha) | Barnyardgrass plant response rating ([3]; 125 g ai/ha) | Barnyardgrass plant response rating ([3]; 500 g ai/ha) | Kochia plant response rating (kochia (Kochia scoparia) [4]; 125 g ai/ha) | Kochia plant response rating (kochia (Kochia scoparia) [4]; 500 g ai/ha) | Plant response rating, Barnyardgrass ([5]; 125 g ai/ha) | Plant response rating, Barnyardgrass ([5]; 500 g ai/ha) | Pigweed plant response rating ([6]; 125 g ai/ha) | Pigweed plant response rating ([6]; 500 g ai/ha) | Plant response rating [7] | Plant response rating, Kochia (kochia (Kochia scoparia) [8]; 125 g ai/ha) | Plant response rating, Kochia (kochia (Kochia scoparia) [8]; 500 g ai/ha) | Plant response rating, Pigweed ([9]; 125 g ai/ha) | Plant response rating, Pigweed ([9]; 500 g ai/ha) | Plant response rating, Foxtail, Giant ([10]; 125 g ai/ha) | Plant response rating, Foxtail, Giant ([10]; 500 g ai/ha) | Plant response rating [11] | other results |
| --- | --- | --- | --- | --- | --- | --- | --- | --- | --- | --- | --- | --- | --- | --- | --- | --- | --- | --- | --- | --- | --- |
| CS(=O)(=O)c1ccccc1NC(=O)C1C(=O)NCCC1c1cccc(C(F)(F)F)c1 (racemic) [Compound 32] | 0 | 0 | 0 | 0 | 20 | 90 | 0 | 20 | 60 | 70 | 0 | 0 | 40 | 0 | 20 | 0 | 0 | 40 | 40 | 0 | Plant response rating, Ragweed ([12]; 125 g ai/ha): 0; Plant response rating, Ragweed ([12]; 500 g ai/ha): 0; Foxtail, Giant plant response rating ([13]; 125 g ai/ha): 70; Foxtail, Giant plant response rating ([13]; 500 g ai/ha): 90; Ragweed plant response rating ([14]; 125 g ai/ha): 0; Ragweed plant response rating ([14]; 500 g ai/ha): 0; Plant response rating [15]: 0; Ryegrass, Italian plant response rating ([16]; 125 g ai/ha): 0; Ryegrass, Italian plant response rating ([16]; 500 g ai/ha): 30; Plant response rating (rice (Oryza sativa)): 0; Plant response rating, Galium ([17]; 125 g ai/ha): 0; Plant response rating, Galium ([17]; 500 g ai/ha): 0; Plant response rating, Ryegrass, Italian ([18]; 125 g ai/ha): 0; Plant response rating, Ryegrass, Italian ([18]; 500 g ai/ha): 20; Plant response rating, Corn (corn (Zea mays); 125 g ai/ha): 0; Plant response rating, Corn (corn (Zea mays); 500 g ai/ha): 30 |
| O=C1NCCC(c2cccc(Cl)c2)C1C(=O)Nc1ccccc1C(F)(F)F (racemic) [Compound 33] | 0 | 0 | 0 | 0 | 50 | 90 | 0 | 30 | 60 | 90 | 0 | 0 | 80 | 0 | 0 | 0 | 0 | 50 | 90 | 20 | Plant response rating, Ragweed ([12]; 125 g ai/ha): 0; Plant response rating, Ragweed ([12]; 500 g ai/ha): 0; Foxtail, Giant plant response rating ([13]; 125 g ai/ha): 70; Foxtail, Giant plant response rating ([13]; 500 g ai/ha): 90; Ragweed plant response rating ([14]; 125 g ai/ha): 0; Ragweed plant response rating ([14]; 500 g ai/ha): 0; Plant response rating [15]: 0; Ryegrass, Italian plant response rating ([16]; 125 g ai/ha): 0; Ryegrass, Italian plant response rating ([16]; 500 g ai/ha): 0; Plant response rating (rice (Oryza sativa)): 0; Plant response rating, Galium ([17]; 125 g ai/ha): 0; Plant response rating, Galium ([17]; 500 g ai/ha): 0; Plant response rating, Ryegrass, Italian ([18]; 125 g ai/ha): 0; Plant response rating, Ryegrass, Italian ([18]; 500 g ai/ha): 0; Plant response rating, Corn (corn (Zea mays); 125 g ai/ha): 0; Plant response rating, Corn (corn (Zea mays); 500 g ai/ha): 0 |
| O=C1NCCC(c2cccc(Cl)c2)C1C(=O)Nc1ccccc1F (racemic) [Compound 34] | 0 | 0 | 0 | 0 | 40 | 90 | 0 | 30 | 40 | 90 | 0 | 30 | 40 | 0 | 0 | 0 | 0 | 40 | 80 | 0 | Plant response rating, Ragweed ([12]; 125 g ai/ha): 0; Plant response rating, Ragweed ([12]; 500 g ai/ha): 0; Foxtail, Giant plant response rating ([13]; 125 g ai/ha): 50; Foxtail, Giant plant response rating ([13]; 500 g ai/ha): 90; Ragweed plant response rating ([14]; 125 g ai/ha): 0; Ragweed plant response rating ([14]; 500 g ai/ha): 30; Plant response rating [15]: 0; Ryegrass, Italian plant response rating ([16]; 125 g ai/ha): 0; Ryegrass, Italian plant response rating ([16]; 500 g ai/ha): 0; Plant response rating (rice (Oryza sativa)): 0; Plant response rating, Galium ([17]; 125 g ai/ha): 0; Plant response rating, Galium ([17]; 500 g ai/ha): 0; Plant response rating, Ryegrass, Italian ([18]; 125 g ai/ha): 0; Plant response rating, Ryegrass, Italian ([18]; 500 g ai/ha): 0; Plant response rating, Corn (corn (Zea mays); 125 g ai/ha): 0; Plant response rating, Corn (corn (Zea mays); 500 g ai/ha): 0 |
